Test results from ChEMBL document CHEMBL5543118, “Optimization of Potent Ligands for the E3 Ligase DCAF15 and Evaluation of Their Use in Heterobifunctional Degraders” (J Med Chem, 2024).
Calls of active or inactive are those of the source. The rule behind the calls is not given here.

Assays:
[1] = Lipophilicity, logD of the compound in octanol/water at pH 7.4 by shake flask method; type: physicochemical
[2] = Binding affinity to human His6-HALO-TEV DCAF15/DDB1/DDA1 complex assessed as displacement of fluorophore tagged indisulam analogue from complex measured after 1 hr by TR-FRET assay
[3] = target: DDB1- and CUL4-associated factor 15/RNA-binding protein 39 (Homo sapiens) (UniProt Q14498+Q66K64); assay: PROTAC activity at RBM39/DCAF15 E3 ligase (unknown origin) assessed as degradation at 0.1 to 10 uM by Western blotting analysis; type: cell-based; conditions: HEK293, dose 0.1-10 µM
HEK293 = assay: Cytotoxicity against human HEK293 cells expressing HiBiT tag-BRD4 assessed as cell viability at 10 uM measured after 24 hrs; type: toxicity, cell-based; conditions: hek293, 24 h
[4] = target: T1, Bromodomain-containing protein 4/DDB1- and CUL4-associated factor 15 (Homo sapiens, UniProt O60885+Q66K64); assay: PROTAC activity at HiBiT tag-BRD4/DCAF15 E3 ligase (unknown origin) expressed in HEK293 cells in presence of (+)-JQ1 incubated for 24 hrs by HiBit degradation assay; type: cell-based
[5] = Aqueous solubility of the compound in DMSO measured for 20 to 24 hrs; type: physicochemical; conditions: time 20-24 hrs
[6] = target: T1, Bromodomain-containing protein 4/DDB1- and CUL4-associated factor 15; assay: PROTAC activity at HiBiT tag-BRD4/DCAF15 E3 ligase (unknown origin) expressed in HEK293 cells assessed as maximal degradation incubated for 6 hrs by HiBit degradation assay relative to control; type: cell-based
[7] = target: T1, Bromodomain-containing protein 4/DDB1- and CUL4-associated factor 15; assay: PROTAC activity at HiBiT tag-BRD4/DCAF15 E3 ligase (unknown origin) expressed in HEK293 cells incubated for 6 hrs by HiBit degradation assay; type: cell-based
[8] = target: T1, Bromodomain-containing protein 4/DDB1- and CUL4-associated factor 15; assay: PROTAC activity at HiBiT tag-BRD4/DCAF15 E3 ligase (unknown origin) expressed in HEK293 cells in presence of MLN4924 incubated for 24 hrs by HiBit degradation assay; type: cell-based
[9] = target: T1, Bromodomain-containing protein 4/DDB1- and CUL4-associated factor 15; assay: PROTAC activity at BRD4/DCAF15 E3 ligase (unknown origin) assessed as maximal degradation incubated for 16 hrs by immunoblot analysis relative to control; type: protein assay
[10] = target: T1, Bromodomain-containing protein 4/DDB1- and CUL4-associated factor 15; assay: PROTAC activity at BRD4/DCAF15 E3 ligase (unknown origin) incubated for 16 hrs by immunoblot analysis; type: protein assay

T1 sequence (Q66K64 whole entry, looked up, other chains not shown): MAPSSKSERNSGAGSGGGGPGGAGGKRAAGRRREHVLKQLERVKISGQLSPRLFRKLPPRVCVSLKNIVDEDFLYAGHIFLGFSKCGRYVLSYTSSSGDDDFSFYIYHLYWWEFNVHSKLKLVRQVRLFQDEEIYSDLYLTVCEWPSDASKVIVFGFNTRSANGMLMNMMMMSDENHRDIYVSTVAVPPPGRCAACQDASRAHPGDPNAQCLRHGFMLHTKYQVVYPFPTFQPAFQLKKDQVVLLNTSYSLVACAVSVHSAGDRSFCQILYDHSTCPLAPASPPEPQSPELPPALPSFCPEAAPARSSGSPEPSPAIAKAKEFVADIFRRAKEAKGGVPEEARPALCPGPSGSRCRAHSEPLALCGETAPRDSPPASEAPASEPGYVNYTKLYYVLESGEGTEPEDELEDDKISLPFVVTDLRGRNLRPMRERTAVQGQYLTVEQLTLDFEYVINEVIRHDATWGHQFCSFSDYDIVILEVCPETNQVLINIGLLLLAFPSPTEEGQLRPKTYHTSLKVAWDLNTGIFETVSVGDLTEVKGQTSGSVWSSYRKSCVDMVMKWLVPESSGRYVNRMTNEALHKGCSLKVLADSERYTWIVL
Sequence of DDB1- and CUL4-associated factor 15/RNA-binding protein 39 (Homo sapiens) (Q14498 whole entry, looked up): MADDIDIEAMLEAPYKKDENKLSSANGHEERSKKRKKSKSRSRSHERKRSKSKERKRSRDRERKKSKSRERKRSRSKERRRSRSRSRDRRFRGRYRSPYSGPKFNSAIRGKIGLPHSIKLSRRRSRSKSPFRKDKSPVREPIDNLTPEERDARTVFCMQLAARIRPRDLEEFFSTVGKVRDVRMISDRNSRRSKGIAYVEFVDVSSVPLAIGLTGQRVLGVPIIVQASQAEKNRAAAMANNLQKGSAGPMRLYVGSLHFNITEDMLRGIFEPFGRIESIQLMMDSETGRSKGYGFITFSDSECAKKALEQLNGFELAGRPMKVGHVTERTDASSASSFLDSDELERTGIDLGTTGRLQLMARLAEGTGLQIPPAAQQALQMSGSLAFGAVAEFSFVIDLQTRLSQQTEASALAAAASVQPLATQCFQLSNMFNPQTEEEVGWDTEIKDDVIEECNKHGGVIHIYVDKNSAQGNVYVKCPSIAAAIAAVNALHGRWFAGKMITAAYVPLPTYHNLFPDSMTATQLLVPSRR
Sequence of DDB1- and CUL4-associated factor 15/RNA-binding protein 39 (Homo sapiens) (Q66K64 whole entry, looked up): as the sequence (Q66K64 whole entry, looked up, other chains not shown) above

Row | logD [1] | IC50 [2] [nM] | Structure (SMILES) | also measured
1 | 1.9 | 979 | CNC(=O)C1CN(C(=O)c2oc(S(=O)(=O)Nc3ccc(Cl)c4c(Cl)c[nH]c34)cc2C)C1 | –
2 | 2 | 692 | CNC(=O)[C@H]1CCN(C(=O)c2oc(S(=O)(=O)Nc3ccc(Cl)c4c(Cl)c[nH]c34)cc2C)C1 | –
3 | 2.1 | 53 | CNC(=O)C1CCN(C(=O)c2oc(S(=O)(=O)Nc3ccc(Cl)c4c(Cl)c[nH]c34)cc2C)CC1 | Activity [3]: inactive; Activity (HEK293): Toxic; Activity [4]: Active
4 | 2.2 | 393 | Cc1cc(S(=O)(=O)Nc2ccc(Cl)c3c(Cl)c[nH]c23)oc1C(=O)N1CCN(C)CC1 | –
5 | 2 | 7010 | N#Cc1cccc(S(=O)(=O)Nc2ccc(F)c3c(C#N)c[nH]c23)c1 | –
6 | 2.7 | 221 | Cc1cc(S(=O)(=O)Nc2ccc(Cl)c3c(Cl)c[nH]c23)oc1C(=O)N(C)C | –
7 | 2.4 | 1550 | N#Cc1cccc(S(=O)(=O)Nc2ccc(Cl)c3c(C#N)c[nH]c23)c1 | –
8 | 2.3 | 675 | CN(C)C(=O)c1ccc(S(=O)(=O)Nc2ccc(Cl)c3c(Cl)c[nH]c23)o1 | –
9 | 2 | 279 | CNC(=O)[C@@H]1CCN(C(=O)c2oc(S(=O)(=O)Nc3ccc(Cl)c4c(Cl)c[nH]c34)cc2C)C1 | –
10 | 3.6 | 46 | Cc1cc(S(=O)(=O)Nc2ccc(Cl)c3c(Cl)c[nH]c23)oc1C(=O)N1CCCCC1 | –
11 | 2.2 | > 100000 | COc1ccc(NS(=O)(=O)c2cccc(C#N)c2)c2[nH]cc(C#N)c12 | –
12 | 2.2 | 842 | CN(C)C(=O)c1nc(S(=O)(=O)Nc2ccc(Cl)c3c(Cl)c[nH]c23)cn1C | –
13 | 3.7 | 1180 | Cc1coc(S(=O)(=O)Nc2ccc(Cl)c3c(Cl)c[nH]c23)c1 | –
14 | 3.8 | 1460 | N#Cc1cccc(S(=O)(=O)Nc2cc(Cl)cc3c(Cl)c[nH]c23)c1 | –
15 | 2.9 | 576 | CNC(=O)c1oc(S(=O)(=O)Nc2ccc(Cl)c3c(Cl)c[nH]c23)cc1C | –
16 | 2.6 | 2320 | Cc1ccc(NS(=O)(=O)c2cccc(C#N)c2)c2[nH]cc(C#N)c12 [E-7820] | –
17 | 2.8 | 505 | COCCNC(=O)c1oc(S(=O)(=O)Nc2ccc(Cl)c3c(Cl)c[nH]c23)cc1C | –
18 | 3 | 615 | Cc1sc(S(=O)(=O)Nc2ccc(Cl)c3c(Cl)c[nH]c23)cc1C(=O)N(C)C | –
19 | 2.3 | 395 | CN(C)C(=O)c1oc(S(=O)(=O)Nc2ccc(Cl)c3c(Cl)c[nH]c23)cc1Cl | –
20 | 1.5 | 506 | Cc1sc(S(=O)(=O)Nc2ccc(Cl)c3c(Cl)c[nH]c23)nc1C(=O)N(C)C | –
21 | > 4 | 74 | Cc1cc(S(=O)(=O)Nc2ccc(Cl)c3c(Cl)c[nH]c23)oc1C(=O)N1CCC(C(=O)N2CCN(CC3CCN(C(=O)C[C@@H]4N=C(c5ccc(Cl)cc5)c5c(sc(C)c5C)-n5c(C)nnc54)CC3)CC2)CC1 | solubility [5]: < 0.16 µM; Emax [6]: 69%; DC50 [7]: 453 nM; Activity [8]: inactive
22 | – | – | Cc1sc2c(c1C)C(c1ccc(Cl)cc1)=N[C@@H](CC(=O)NCCOCCOCCNC(=O)c1cccc(S(=O)(=O)Nc3ccc(C)c4c(C#N)c[nH]c34)c1)c1nnc(C)n1-2 | Emax [9]: 98%; DC50 [10]: 10.8 µM
23 | 3.1 | 224 | Cc1cc(S(=O)(=O)Nc2ccc(Cl)c3c(Cl)c[nH]c23)sc1C(=O)N(C)C | –
24 | 4 | 709 | N#Cc1cccc(S(=O)(=O)Nc2ccc(Cl)c3c(Cl)c[nH]c23)c1 | –
25 | 1.7 | 4390 | N#Cc1cccc(S(=O)(=O)Nc2ccc(C#N)c3c(Cl)c[nH]c23)c1 | –
